Molecules are shown by their SMILES.

The melting point is the temperature of the solid-liquid transition.

The first data set relates to Staphylococcus aureus. Briefly: MIC by microdilution method (NCCLS), S. aureus. The class given is cell-based. Here is the method: Exemplary compounds of formula 1 are as follows. MIC refers to the minimal inhibitory concentration which was determined as described in Example 37.
Minimum inhibitor concentrations (MICs) were determined using the microdilution method according to National Committee for Clinical Laboratory Standards (NCCLS) procedures. Compounds were suspended in DMSO at 10 mg/ml and stored at −20° C. The range of concentrations tested was 64-0.06 μg/ml using two-fold dilutions.
To prepare the inoculum, bacterial cultures were grown overnight at 35° C. on agar plates and each organism was resuspended in 1 ml saline to obtain a 0.5 McFarlands density standard. This was subsequently diluted 1:200 into Mueller-Hinton Broth (MHB) or Haemophilus Test Medium (HTM; for Haemophilus) providing a final inoculum size of 5*10^5 cfu/ml. After inoculation with the bacteria, assay plates were incubated at 35° C. for 18-24 h. […] Gram positive and gram negative strains used included Staphylococcus aureus, Enterococcus faecium, Enterococcus faecalis, Streptococcus pneumoniae, Haemophilus influenzae, Pseudomonas aeruginosa, Escherichia coli, and E. coli (acr)—an efflux pump mutant.
In general terms: Dilution methods test growth across graded concentrations, often in twofold steps.
With `CSc1ccc(N2C[C@H](CNC(C)=S)OC2=O)cc1F` [drawing 18], the “MIC (minimal inhibitory concentration)” value is recorded as 4-8 Tg/mL. Consider `CC(=S)NC[C@H]1CN(c2ccc(N(C)S(C)(=O)=O)c(F)c2)C(=O)O1`, for which the “MIC (minimal inhibitory concentration)” value is reported as 4-8 Tg/mL.

Tested on in a further data set: not given
Test: not given
`CC(=S)NC[C@H]1CN(c2ccc(C(=O)O)c(F)c2)C(=O)O1` returned a melting point of 180 to 182 °C. In turn, `COC(=O)c1ccc(N2C[C@H](CNC(C)=S)OC2=O)cc1F` had a melting point of 152 to 154 °C. As to `CC[S+]([O-])c1ccc(N2C[C@H](CNC(C)=S)OC2=O)cc1F` (stereo partly drawn), the melting point lay in the range of 138 to 139 °C. Still for that read-out and setting: to `CC(=S)NC[C@H]1CN(c2ccc(S(C)(=O)=O)c(F)c2)C(=O)O1` belongs 177 °C. On the same count and under the same terms, to `CC(=S)NC[C@H]1CN(c2ccc([S+]([O-])CCF)c(F)c2)C(=O)O1` (stereo partly drawn) belongs 161 °C. The same measure, in the same setting: to `CC(=S)NC[C@H]1CN(c2ccc(NC(=O)c3ccc([N+](=O)[O-])o3)c(F)c2)C(=O)O1` belongs 188 °C.

The compound `CSc1ccc(N2C[C@H](CNC(C)=S)OC2=O)cc1F` registered a melting point of 130 to 131 °C. In turn, `CC(=S)NC[C@H]1CN(c2ccc(Sc3ncc([N+](=O)[O-])s3)c(F)c2)C(=O)O1` registered a melting point of 116 to 117 °C. `CC(=O)NC[C@H]1CN(c2ccc(NC(=O)c3csnn3)c(F)c2)C(=O)O1` returned a melting point of 233 °C. Still for that read-out and setting: to `CC(=S)NC[C@H]1CN(c2ccc(SCCCl)c(F)c2)C(=O)O1` belongs 134 to 135 °C; to `CC(=S)NC[C@H]1CN(c2ccc(C3=NOCCO3)c(F)c2)C(=O)O1`, 166 to 167 °C; to `CC(=S)NC[C@H]1CN(c2ccc(C(=O)NN)c(F)c2)C(=O)O1`, 177 °C. `CC(=S)NC[C@H]1CN(c2ccc(C(=O)Oc3c(F)c(F)c(F)c(F)c3F)c(F)c2)C(=O)O1` gave a melting point of 163 to 164 °C. In the case of `CC(=S)NC[C@H]1CN(c2ccc(N(C)C=S)c(F)c2)C(=O)O1`, the melting point lay in the range of 103 to 104 °C. `CNC(=O)c1ccc(N2C[C@H](CNC(C)=S)OC2=O)cc1F`: the melting point fell in the range of 176 to 177 °C.

In turn, `CC(=S)NC[C@H]1CN(c2ccc(N)c(F)c2)C(=O)O1` displayed a melting point of 137 to 188 °C. The compound `CC(=S)NC[C@H]1CN(c2ccc([S+](C)[O-])c(F)c2)C(=O)O1` (stereo partly drawn) showed a melting point of 158 to 160 °C. Same read-out and setting: to `CC(=S)NC[C@H]1CN(c2ccc(NC(=O)c3csnn3)c(F)c2)C(=O)O1` belongs 203 to 204 °C; to `CC(=O)Nc1ccc(N2C[C@H](CNC(C)=S)OC2=O)cc1F`, 200 to 201 °C.

Source of the values: US6743811B2, “Oxazalidinone compounds and methods of preparation and use thereof” (Pharmacia & Upjohn Company, priority 1999, dated 2004).
